Columns and labels:
[1] = Cytotoxicity against mouse Melan-a cells assessed as reduction in cell viability after 48 hrs by MTT assay; format: toxicity
Entamoeba histolytica = experiment: Antiamoebic activity against Entamoeba histolytica HM-1:IMSS trophozoites after 72 hrs by microdilution method; format: functional

| SMILES | IC50 (Entamoeba histolytica) [µM] | IC50 at 48 h [1] [µM] |
| --- | --- | --- |
| Cc1ncc([N+](=O)[O-])n1CCOC(=O)Nc1ccc(OCc2cccc(Cl)c2)cc1 | 0.15 | > 50 |
| Cc1ncc([N+](=O)[O-])n1CCO [METRONIDAZOLE] | 1.78 |  |
| Cc1ncc([N+](=O)[O-])n1CCOC(=O)Nc1ccc(OCc2ccc(F)c(F)c2)cc1 | 0.26 | > 50 |

The next lines start with results.

| IC50 (Entamoeba histolytica) [µM] | SMILES | IC50 at 48 h [1] [µM] |
| --- | --- | --- |
| 0.24 | Cc1ncc([N+](=O)[O-])n1CCOC(=O)Nc1ccc(OCc2ccc(C(F)(F)F)cc2)cc1 | > 50 |
| 0.08 | Cc1ncc([N+](=O)[O-])n1CCOC(=O)Nc1ccc(OCc2ccc(F)cc2)cc1 | > 50 |
| 0.26 | Cc1ncc([N+](=O)[O-])n1CCOC(=O)Nc1ccc(OCc2ccc(C#N)cc2)cc1 | > 50 |

— ChEMBL document CHEMBL3860092, “Recent progress on the discovery of antiamoebic agents” (Bioorg Med Chem Lett, 2016)
